2 compounds from patent publication US5700478A, “Water-soluble pressure-sensitive mucoadhesive and devices provided therewith for emplacement in a mucosa-lined body cavity” (Cygnus, Inc., priority 1995, dated 1997) can be followed below.

Where a name gives a salt, the structure may show the parent alone.

Series [1] can be described thus: Release of benzocaine into distilled water: effect of polymer molecular weight. The series is classed as physicochemical. To be noted: HPC 80 k vs. 300 k in active-containing layer, FIG. 11. On the procedure: In this Example, bilaminate mucoadhesive discs containing benzocaine were constructed generally as described in Example IX, substituting benzocaine for Dyclonine. Discs were made using HPC both at the same molecular weight as described in Example 2 (80 k), and at a higher molecular weight (300 k), and the release into distilled water was tested as described in Example X. The results are shown in FIG. 11.

The nature of series [2]: Transport through pig mucosa (Franz diffusion cells). The series is classed as in vitro ADME, porcine. Here is the method:
In this example, bilaminate mucoadhesive discs, containing as an active substance benzocaine or Dyclonine HCl, were affixed to porcine buccal mucosa and mounted on Franz diffusion cells as described in Example XIII. Avenge amounts of active substance was measured using HPLC, and percents were expressed as a percent of the total initially in the disc.
Particularly, the donor side of the cell was filled with pH 6 buffer and the receiver side was filled with phosphate buffered saline ("PBS"). Samples were taken from the receiver side every thirty minutes for three hours, and the samples were analyzed by HPLC. The average amount and the average percent of active substance appearing in the receiver side after three hours are shown in Table IV.

Series [3] is described as follows: Transport through human stratum corneum (Franz diffusion cells). The format is in vitro ADME. On the procedure: In this example, bilaminate mucoadhesive discs, containing as an active substance benzocaine or Dyclonine HCl, were affixed to human stratum corneum and mounted on Franz diffusion cells. The donor side of the cell was filled with pH 6 buffer and the receiver side was filled with PBS. Samples were taken from the receiver side and analyzed using HPLC, and the average amount and percentage of active substance appearing in the receiver cell were determined.

For the compound `CCOC(=O)c1ccc(N)cc1` [Benzocaine, benzocaine], the “release rate of benzocaine vs. molecular weight of HPC” value in series [1] is “decrease in release rate of benzocaine with increasing molecular weight of HPC”. For the same compound, the “Average % Transported” value was 3.29% in series [2] (15% in bilaminate disc, % of drug initially in device, three hours, donor pH 6 buffer, receiver PBS) and 2.42% in series [3] (15% in bilaminate disc, donor pH 6 buffer, receiver PBS). In addition, the “Average Amount Delivered” value in series [2] (pH 6) is reported as 284.63 μg/cm^2; in series [3] (pH 6) it was 255.56 μg/cm^2.
`CCCCOc1ccc(C(=O)CCN2CCCCC2)cc1` [Dyclonine HCl]: in series [2] (pH 6), the “Average % Transported” value was 3.94% and the “Average Amount Delivered” value is 282.77 μg/cm^2. Also, in series [3] (pH 6), the “Average % Transported” value worked out at 0.18% and the “Average Amount Delivered” value was found to be 14.60 μg/cm^2.
